Experimental data reported in patent US11130726B2, “Therapeutic compounds and methods of use thereof” (GENENTECH, INC., priority 2015, dated 2021).

Target: T1, hNav1.7 (Homo sapiens, UniProt Q15858)
T1 construct: expressed in transfected cells
Test: Tritiated compound competitive binding to membranes from cells heterologously expressing hNav1.7 and the β1 subunit (LBA)
Conditions: read-out: NaV1.7 (LBA)
Experimental: Example 19 Tritiated Compound Binding to Membranes Isolated from Cells that Heterologously Express hNav1.7 and the β1 Subunit
Preparation of membranes containing recombinantly expressed sodium channels: Frozen recombinant cell pellets were thawed on ice and diluted to 4 times the cell pellet weight with ice cold 50 mM Tris HCl, pH 7.4 buffer. The cell suspensions were homogenized on ice using a motorized glass dounce homogeniser. Homogenates were further diluted 8.4 times with ice cold 50 mM Tris HC1, pH 7.4 buffer and then centrifuged at 200× g at 4° C. for 15 min. The supernatants were collected and centrifuged at 10000× g at 4° C. for 50 min. The pellets were then re-suspended in 100 mM NaCl, 20 mM Tris HCl, pH 7.4 buffer containing 1% v/v protease inhibitors (Calbiochem) and re-homogenized on ice. The homogenized membranes were then processed through a syringe equipped with a 26 gauge needle. Protein concentrations were determined by Bradford Assay and the membranes were stored at −80° C.
Radioligand Binding Studies: Saturation experiments. A competitive NaV1.7 inhibitor having a methyl group was tritiated. Three tritiums were incorporated in place of methyl hydrogens to generate[^3H]compound. Binding of this radioligand was performed in 5 mL borosilicate glass test tubes at room temperature. Binding was initiated by adding membranes to increasing concentrations of [^3H]compound in 100 mM NaCl, 20 mM Tris HCl, pH 7.4 buffer containing 0.01% w/v bovine serum albumin (BSA) for 18 h. Non-specific binding was determined in the presence of 1 μM unlabeled compound. After 18 h, the reactants were filtered through GF/C glass fiber filters presoaked in 0.5% w/v polyethylene imine. Filters were washed with 15 mL ice cold 100 mM NaCl, 20 mM Tris HCl, pH7.4 buffer containing 0.25% BSA to separate bound from free ligand. [^3H]compound bound to filters was quantified by liquid scintillation counting.
Competitive binding experiments: Binding reactions were performed in 96-well polypropylene plates at room temperature for 18 h. In 360 μL, membranes were incubated with 100 pM [^3H]compound and increasing concentrations of Test Compound. Non-specific binding was defined in the presence of 1 μM unlabeled compound. Reactions were transferred and filtered through 96-well glass fiber/C filter plates presoaked with 0.5% polyethylene imine. The filtered reactions were washed 5 times with 200 μL ice cold buffer containing 0.25% BSA. Bound radioactivity was determined by liquid scintillation counting.
Data Analysis: For saturation experiments, non-specific binding was subtracted from total binding to provide specific binding and these values were recalculated in terms of pmol ligand bound per mg protein. Saturation curves were constructed and dissociation constants were calculated using the single site ligand binding model: Beq=(Bmax*X)/(X+Kd), where Beq is the amount of ligand bound at equilibrium, Bmax is the maximum receptor density, Kd is the dissociation constant for the ligand, and X is the free ligand concentration. For competition studies percent inhibition was determined and IC50 values were calculated using a 4 parameter logistic model (% inhibition=(A+((B−A)/(1+((x/C)^D)))) using XLfit, where A and B are the maximal and minimum inhibition respectively, C is the IC50 concentration and D is the (Hill) slope.

T1 sequence (Q15858 whole entry): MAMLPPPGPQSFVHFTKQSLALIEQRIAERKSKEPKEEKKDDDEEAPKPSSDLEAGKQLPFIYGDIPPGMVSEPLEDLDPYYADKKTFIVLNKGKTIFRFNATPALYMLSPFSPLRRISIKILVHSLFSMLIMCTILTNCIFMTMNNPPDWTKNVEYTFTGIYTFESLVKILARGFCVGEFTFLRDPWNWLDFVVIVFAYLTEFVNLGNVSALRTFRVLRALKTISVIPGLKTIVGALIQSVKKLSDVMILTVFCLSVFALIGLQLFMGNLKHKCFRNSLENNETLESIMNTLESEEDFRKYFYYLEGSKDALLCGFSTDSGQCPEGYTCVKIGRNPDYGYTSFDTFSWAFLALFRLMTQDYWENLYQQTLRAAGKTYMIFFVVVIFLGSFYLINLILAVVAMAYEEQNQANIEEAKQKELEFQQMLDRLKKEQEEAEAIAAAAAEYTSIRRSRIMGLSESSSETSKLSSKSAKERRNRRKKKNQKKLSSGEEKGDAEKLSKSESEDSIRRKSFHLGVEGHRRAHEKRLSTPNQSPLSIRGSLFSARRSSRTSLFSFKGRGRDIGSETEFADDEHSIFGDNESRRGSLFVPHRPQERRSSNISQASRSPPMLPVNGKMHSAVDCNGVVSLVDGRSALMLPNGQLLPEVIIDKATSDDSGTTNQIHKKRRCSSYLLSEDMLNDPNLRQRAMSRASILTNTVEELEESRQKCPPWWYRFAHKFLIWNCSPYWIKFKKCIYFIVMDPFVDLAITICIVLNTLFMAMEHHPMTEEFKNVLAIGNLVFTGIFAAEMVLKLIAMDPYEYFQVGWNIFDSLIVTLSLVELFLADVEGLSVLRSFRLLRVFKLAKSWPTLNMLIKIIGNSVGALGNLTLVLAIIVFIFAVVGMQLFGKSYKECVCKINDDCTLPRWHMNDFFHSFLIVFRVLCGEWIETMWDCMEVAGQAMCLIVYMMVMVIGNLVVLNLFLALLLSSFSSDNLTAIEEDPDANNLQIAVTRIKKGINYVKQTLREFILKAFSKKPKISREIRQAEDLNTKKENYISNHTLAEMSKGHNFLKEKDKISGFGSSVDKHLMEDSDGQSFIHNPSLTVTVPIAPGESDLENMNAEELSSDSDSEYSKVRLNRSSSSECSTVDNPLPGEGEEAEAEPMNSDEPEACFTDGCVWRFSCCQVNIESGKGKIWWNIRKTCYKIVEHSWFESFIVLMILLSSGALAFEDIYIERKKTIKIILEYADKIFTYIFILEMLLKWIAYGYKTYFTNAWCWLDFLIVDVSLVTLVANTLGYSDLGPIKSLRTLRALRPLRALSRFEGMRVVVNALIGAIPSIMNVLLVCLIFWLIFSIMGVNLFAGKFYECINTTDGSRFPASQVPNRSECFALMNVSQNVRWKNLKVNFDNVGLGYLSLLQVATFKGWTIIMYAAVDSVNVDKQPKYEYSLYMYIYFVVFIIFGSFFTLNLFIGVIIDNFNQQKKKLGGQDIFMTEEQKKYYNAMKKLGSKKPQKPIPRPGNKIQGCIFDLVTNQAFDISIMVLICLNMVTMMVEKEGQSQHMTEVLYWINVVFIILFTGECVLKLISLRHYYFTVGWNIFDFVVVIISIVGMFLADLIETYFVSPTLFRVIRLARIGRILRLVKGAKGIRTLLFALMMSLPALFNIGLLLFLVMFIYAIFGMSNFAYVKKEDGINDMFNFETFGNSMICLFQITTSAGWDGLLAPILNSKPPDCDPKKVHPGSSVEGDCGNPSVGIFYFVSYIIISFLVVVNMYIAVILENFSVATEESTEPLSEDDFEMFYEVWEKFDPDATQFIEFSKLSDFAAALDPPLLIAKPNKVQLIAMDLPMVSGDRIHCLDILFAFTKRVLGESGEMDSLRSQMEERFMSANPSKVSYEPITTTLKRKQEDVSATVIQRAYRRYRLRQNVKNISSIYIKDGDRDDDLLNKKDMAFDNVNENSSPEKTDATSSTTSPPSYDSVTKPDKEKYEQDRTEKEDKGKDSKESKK
T1 sequence (Q07699 19-218 partner): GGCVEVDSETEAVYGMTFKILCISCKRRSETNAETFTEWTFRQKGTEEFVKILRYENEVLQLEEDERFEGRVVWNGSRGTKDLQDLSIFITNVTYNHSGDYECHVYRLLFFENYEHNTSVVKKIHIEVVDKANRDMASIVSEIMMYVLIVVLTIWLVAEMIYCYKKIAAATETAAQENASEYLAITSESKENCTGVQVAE

SMILES | IC50
O=C(O)[C@@H]1CC[C@H]1C(=O)c1cc(C2CC2)c(OCC23CC4CC(CC(C4)C2)C3)cc1F (racemic) [Example 7] | 760 nM
CN(c1cc(Cl)c(OCC23C[C@H]4C[C@@H](C2)C[C@@H](C3)C4)cc1F)[C@@H]1CCC[C@H]1C(=O)O (relative stereo) [Example 18, 2-(4-(1-adamantylmethoxy)-5-chloro-2-fluoro-N-methylanilino)-cyclopentanecarboxylic acid] | > 10000 nM
O=C(O)[C@@H]1CCC[C@H]1[S+]([O-])c1cc(Cl)c(OCC23CC4CC(CC(C4)C2)C3)cc1F (stereo in doubt) [Example 16] | 1290 nM
O=C(O)[C@@H]1CCC[C@H]1C(=O)c1cc(C2CC2)c(OCC23CC4CC(CC(C4)C2)C3)cc1F [Example 1] | 9 nM
O=C(O)[C@H]1CCC[C@@H]1C(=O)c1cc(C2CC2)c(OCC23CC4CC(CC(C4)C2)C3)cc1F [Example 2] | 510 nM
O=C(c1cc(Cl)c(OCC23CC4CC(CC(C4)C2)C3)cc1F)[C@H]1CCC[C@H]1C(=O)O [Example 3] | 4200 nM
O=C(O)[C@@H]1CCCC[C@H]1C(=O)c1cc(C2CC2)c(OCC23CC4CC(CC(C4)C2)C3)cc1F [Example 6] | 55 nM
C[C@@H]1CC[C@H](C(=O)c2cc(C3CC3)c(OCC34CC5CC(CC(C5)C3)C4)cc2F)[C@H]1C(=O)O [Example 12] | 3 nM
O=C(O)[C@@H]1CCC[C@H]1C(=O)c1cc(C2CC2)c(OCC2CCN(Cc3cc(C(F)(F)F)ccc3Cl)CC2)cc1F [Example 13, (1R,2R)-2-(4-((1-(2-chloro-5-(trifluoromethyl)benzyl)piperidin-4-yl)methoxy)-5-cyclopropyl-2-fluorobenzoyl)cyclopentane-1-carboxylic acid] | 21 nM
O=C(O)C1CCCC1Sc1cc(Cl)c(OCC23CC4CC(CC(C4)C2)C3)cc1F (stereo not drawn) [Example 14] | 2630 nM

The remaining lines, values ahead:

IC50 | SMILES
454 nM | O=C(O)[C@@H]1CCC[C@H]1S(=O)(=O)c1cc(Cl)c(OCC23CC4CC(CC(C4)C2)C3)cc1F (racemic) [Example 15]
860 nM | O=C(O)[C@@H]1CCC[C@H]1C(=O)c1cc(C2CC2)c(OCc2ccccc2)cc1F (relative stereo) [Example 8, trans-2-(4-(benzyloxy)-5-cyclopropyl-2-fluorobenzoyl)-cyclopentane-1-carboxylic acid]
21 nM | O=C(O)[C@@H]1CCC[C@H]1C(=O)c1cc(C2CC2)c(COc2cc(Cl)cc(Cl)c2)cc1F (relative stereo) [Example 10, (1,2-trans)-2-(5-cyclopropyl-4-((3,5-dichlorophenoxy)methyl)-2-fluorobenzoyl)cyclopentane-1-carboxylic acid]
440 nM | O=C(O)[C@@H]1CCC[C@H]1C(=O)c1cc(Cl)c(OCC23CC4CC(CC(C4)C2)C3)cc1F [Example 4]
3100 nM | O=C(O)[C@@H]1CCC[C@H]1Cc1cc(C2CC2)c(OCC23CC4CC(CC(C4)C2)C3)cc1F [Example 5]
51 nM | C[C@@H](c1cc(Cl)cc(Cl)c1)N1CCC(COc2cc(F)c(C(=O)[C@@H]3CCC[C@H]3C(=O)O)cc2C2CC2)CC1 [Example 9, (1,2-trans)-2-(5-cyclopropyl-4-((1-((S)-1-(3,5-dichlorophenyl)ethyl)piperidin-4-yl)methoxy)-2-fluorobenzoyl)cyclopentane-1-carboxylic acid]
700 nM | C[C@H]1CC[C@@H](C(=O)c2cc(C3CC3)c(OCC34CC5CC(CC(C5)C3)C4)cc2F)[C@@H]1C(=O)O [Example 11]
3020 nM | O=C(O)C1CCCC1Nc1cc(Cl)c(OCC23CC4CC(CC(C4)C2)C3)cc1F (stereo not drawn) [Example 17, 2-((4-adamant-1-ylmethoxy)-5-chloro-2-fluoro-anilino)cyclopentanecarboxylic acid]
